Structures are written as SMILES.

Experiment [1] concerns the target T1, JAK1 (Homo sapiens, UniProt P23458). Briefly: AlphaScreen SureFire IL6-TF-1-JAK1 cell-based assay (pSTAT3 detection). Details: endogenous in cells; host or cells: TF-1 cells. To be noted: TF-1 cells, IL6 30 ng/mL; n=10; read-out: IC50, IL6-stimulated TF-1 JAK1 cell-based assay. The protocol: AlphaScreen SureFire Protocol […]-(p-Tyr705)-IL6-TF-1-JAK1 Cell-Based Assay
The JAK1 cell based assay described below is used to determine the JAK1 cellular potency of test compounds.
Starve TF-1 cells in DMEM medium with 0.5% […] and 1× Pen/Strep at 37° C. Plate 100K cells per well in BD 96 well black plates with clear bottoms. Maintain the plates at RT for 30-60 minutes before incubating overnight at 37° C. and 5% CO2. Count cells using Vi-Cell counter, using a cell suspension at […] and plated 100 μL/well in […] Biocoat plates (Catalog #354640).
Prepare compounds at 1:3 serial dilutions in DMSO and further dilute into the medium. Test compounds in a range of 10 point concentrations from 20,000 to 1 nM. Add diluted compound to corresponding cell plates. […]
Perform the following steps sequentially: make acceptor mix (activation buffer/reaction buffer/acceptor beads); transfer 4 μL lysate from 96 well plates to 384 well-Proxiplates; add 5 μL acceptor mix to 384 proxiplate plate(s) and seal plates with aluminum seal; shake 1-2 minutes on plate shaker; incubate plate at RT for 2 hr with gentle shaking; make donor mix (donor beads in dilution buffer); add 2 μL donor mix to assay plates; seal plates with aluminum seal; shake 1-2 minutes on plate shaker; incubate at RT for 2 hr with gentle shaking; read plate with Envision; protocol AlphaScreen Surefire 384.
For orientation: Alpha assays give light when donor and acceptor beads are brought close together.

For experiment [2], the target named is T1, JAK1. Put plainly: Human whole blood assay: pSTAT3 (JAK1) in lymphocytes. The experiment is classed as cell-based. To be noted: HWB. Details: endogenous in cells; host or cells: human whole blood, CD4+ lymphocytes. An excerpt:
Human Whole Blood Assays: Determination of pSTAT3 (JAK1) and pSTAT5 (JAK2) in Lymphocytes and Monocytes
Human whole blood (HWB) assays were developed and validated to determine the JAK1 and JAK2 selectivity of test compounds.
Dilute the test compounds, 10 points, (1:3) in DMSO 100% and a step down in PBS+0.1% BSA. Use tofacitinib as a reference compound in each plate, as well as a maximum signal (stimulated wells) and a minimum signal (no stimulated wells) in order to normalize data. Obtain a pool of HWB from 4 different healthy donors. Plate the blood in a 96 well plate using a Tecan Evo 96w and incubate with test compounds for 1 h at RT. After this time of incubation, stimulate HWB with both IL6 (206-IL, R&D System) and GM-CSF (PHC2015, Life Technologies) for 15 more minutes. […]
The final concentrations in the assay are the following: 100 μM for compounds, 50 μM for tofacitinib, 0.1 μg/mL IL6, 0.038 μg/mL GM-CSF and 1% DMSO. […] Incubate the antibodies for 1 h in dark at RT, then wash cells 2× and read on Cytometer Macsquant (Miltenyi Biotec). Gate the data on CD4+(lymphocytes) and CD4Low CD33Hi (monocytes), to measure the fluorescence from cells expressing pSTAT3 and pSTAT5 respectively. Analyze the data using FlowJo v_10 and the normalize the median of fluorescence versus maximum and minimum signal to determine the IC50s. […]

T1 sequence (P23458 whole entry): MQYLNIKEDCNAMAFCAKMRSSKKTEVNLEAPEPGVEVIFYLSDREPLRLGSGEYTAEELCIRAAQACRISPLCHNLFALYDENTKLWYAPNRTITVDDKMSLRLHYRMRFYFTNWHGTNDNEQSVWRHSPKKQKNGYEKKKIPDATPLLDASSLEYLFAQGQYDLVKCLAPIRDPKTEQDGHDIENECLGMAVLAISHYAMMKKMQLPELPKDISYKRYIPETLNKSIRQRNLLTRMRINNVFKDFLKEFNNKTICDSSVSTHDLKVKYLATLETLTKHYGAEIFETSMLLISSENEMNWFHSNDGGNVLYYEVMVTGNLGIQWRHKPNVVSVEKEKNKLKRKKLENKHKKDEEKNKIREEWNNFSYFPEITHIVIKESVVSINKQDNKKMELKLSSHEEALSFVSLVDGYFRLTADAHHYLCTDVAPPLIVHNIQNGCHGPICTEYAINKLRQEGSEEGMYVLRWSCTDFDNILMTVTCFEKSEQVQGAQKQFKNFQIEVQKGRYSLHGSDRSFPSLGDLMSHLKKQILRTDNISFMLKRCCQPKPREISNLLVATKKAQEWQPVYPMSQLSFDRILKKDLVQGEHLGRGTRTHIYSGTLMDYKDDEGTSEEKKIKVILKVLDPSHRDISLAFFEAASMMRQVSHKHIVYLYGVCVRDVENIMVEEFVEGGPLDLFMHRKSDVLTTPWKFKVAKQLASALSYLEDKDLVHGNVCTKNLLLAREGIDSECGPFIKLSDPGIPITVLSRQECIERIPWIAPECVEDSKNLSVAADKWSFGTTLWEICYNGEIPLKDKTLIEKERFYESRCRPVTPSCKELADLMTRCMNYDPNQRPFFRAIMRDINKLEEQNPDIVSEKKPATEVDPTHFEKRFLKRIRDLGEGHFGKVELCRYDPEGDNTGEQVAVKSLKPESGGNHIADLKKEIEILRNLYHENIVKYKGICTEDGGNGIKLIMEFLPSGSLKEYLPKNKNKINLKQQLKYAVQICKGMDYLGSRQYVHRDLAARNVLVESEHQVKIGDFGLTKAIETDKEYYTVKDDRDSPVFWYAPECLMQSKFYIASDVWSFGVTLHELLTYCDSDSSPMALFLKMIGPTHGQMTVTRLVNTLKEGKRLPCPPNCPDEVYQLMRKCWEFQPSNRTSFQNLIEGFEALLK

In the case of `Cc1cc(Nc2cc(O[C@H]3CC[C@@H](NC[C@@H](O)C(F)(F)F)CC3)cc3c2ncn3C)nn1C` [Example 1, (2R)-3-{[cis-4-({4-[(1,5-Dimethyl-1H-pyrazol-3-yl)amino]-1-methyl-1H-benzimidazol-6-yl}oxy)cyclohexyl]amino}-1,1,1-trifluoropropan-2-ol], the IC50 (as a rule, the point on the concentration scale where inhibition reaches its midpoint) is 87 nM on JAK1 [1] and 2400 ± 640 nM at JAK1 [2] (IL6 stimulated, CD4+ lymphocytes, n=3). Moreover, the “potency for JAK1 over JAK2 in a human whole blood assay” value at JAK1 [2] (JAK1 over JAK2) is “approximately 5 ×”.

These data come from patent US9556153B1, “JAK1 inhibitors” (Eli Lilly and Company, priority 2015, dated 2017).
